Experimental data taken from the NIST ThermoML archive (doi:10.1016/j.fluid.2013.03.029).
± gives the expanded uncertainty stated by the source.

Experiments:
[1] = Liquid; for mass density: 293.15 K, 101.33 kPa, Vibrating tube method; for Normal boiling temperature: Ebulliometric method (Recirculating still)
[2] = refractive index (Na D-line) (dimensionless); details: 293.15 K; 101.33 kPa; Liquid; Standard Abbe refractometry

| Structure (SMILES) | mass density [1] [kg/m3] | Normal boiling temperature [1] [°C] | refractive index [2] |
| --- | --- | --- | --- |
| CC(C)CO [2-methyl-1-propanol] | 801.7 ± 1 | 107.00 ± 0.5 | 1.3955 ± 0.0008 |
| CCCCCO [pentan-1-ol] | 813.7 ± 1 | 137.80 ± 0.51 | 1.4087 ± 0.0008 |
| CCO [ethanol] | 790 ± 1 | 78.40 ± 0.5 | 1.3616 ± 0.0008 |
| O [water] | 998.4 ± 1 | 100.1 ± 0.5 | 1.3328 ± 0.0008 |
